# From article PMC6277767, “Broad and Region-Specific Impacts of the Synthetic Cannabinoid CP 55,940 in Adolescent and Adult Female Mouse Brains” (Frontiers in Molecular Neuroscience, 2018)
# System: CD1 female mouse brain lipidome
# Assay: Brain-region lipid levels (HPLC/MS/MS lipidomics) 2 h after single i.p. 3 mg/kg CP 55,940 vs vehicle
# Type: in vivo
# Set-up: N-arachidonoyl phenylalanine level, Mean / N-stearoyl tryptophan level, Mean / N-stearoyl proline level, Mean / N-stearoyl leucine level, Mean / N-stearoyl phenylalanine level, Mean / N-stearoyl serine level, Mean / N-stearoyl methionine level, Mean: unit: moles per gram
# Experimental: The Bloomington Institutional Animal Care and Use Committee of Indiana University reviewed and approved the animal procedures. Female mice from the CD1 strain were utilized to match our study examining THC’s effects on the brain lipidome ([Leishman et al., 2018]). Mice were given a single i.p. injection of either 3 mg/kg CP or 1:1:18 cremophor:ethanol:saline vehicle (please refer to the section “3 mg/kg CP Is Relevant for Synthetic Cannabinoid Abuse and Has Stronger Effects on the Female Mouse Brain Lipidome During Adolescence” for a justification of dose and use of female mice). Three different age groups were given injections: PND 35 and PND 50 adolescents, and adult mice (PND 113). At least eight mice in each age group received CP and at least eight received vehicle. Matching the THC study time course ([Leishman et al., 2018]), mice were sacrificed via rapid decapitation 2 h after injection. Brains were immediately removed and flash-frozen in liquid nitrogen, and then stored at -80°C until dissections were performed. Brains were dissected on an ice-cold dissection plate into the following regions: STR, HIPP, CER, THAL, CTX, HYP, MID, and STEM. These abbreviations for these brain areas will be used exclusively when discussing the results generated by these specific dissections. Each dissected area was immediately placed in liquid nitrogen and then stored at -80°C until used for lipid extraction.
# Tissue extracts were performed as previously described ([Bradshaw et al., 2006]; [Stuart et al., 2013]; [Raboune et al., 2014]; [Leishman et al., 2016a],[b], [2017], [2018]). First, samples were shock frozen in liquid nitrogen, weighed, and transferred to a centrifuge tube. The mass of the largest sample was multiplied by 50 to determine how many milliliters of HPLC-grade methanol (Fisher, Fair Lawn, NJ, United States) to add. Then, samples were spiked with 500 pmol deuterium-labeled NAGly (d8NAGly; Cayman Chemical, Ann Arbor, MI, United States). Samples were placed on ice in darkness for 2 h then individually homogenized and centrifuged at 19,000 × g for 20 min at 20°C. Supernatants were diluted with HPLC water (purified in house) to make a solution of 75% water, 25% supernatant. Lipids were partially purified on C18 solid phase extraction columns (Agilent, Palo Alto, CA, United States). A series of four elutions with 1.5 mL of 60%, 75%, 85%, and 100% methanol were collected ([Stuart et al., 2013]; [Leishman et al., 2016a],[b], [2018]).
# As previously described ([Bradshaw et al., 2006]; [Tan et al., 2006]; [Smoum et al., 2010]; [Stuart et al., 2013]; [Tortoriello et al., 2013]; [Raboune et al., 2014]; [Leishman et al., 2016a],[b], [2017], [2018]), samples were analyzed using an Applied Biosystems API 3000 triple quadrupole mass spectrometer with electrospray ionization (Foster City, CA, United States). Using an Agilent XDB-C18 reversed phase analytical column and optimized mobile phase gradients, 20 μL from each elution were chromatographed. Two Shimadzu 10ADvp pumps (Columbia, MD, United States) provided the pressure for gradient elution. Mobile phase A: 20% methanol, 80% water (v/v) and 1 mM ammonium acetate (Sigma, St. Louis, MO, United States). Mobile phase B: 100% methanol, 1 mM ammonium acetate. Every method run began with 0% mobile phase B, reached 100% mobile phase B flowing at 0.2 mL/min, and gradually returned to 0% mobile phase B.
# This screening library will be referred to as the lipidome when discussing data from this study. HPLC/MS/MS data were analyzed using Analyst software (Applied Biosystems) ([Bradshaw et al., 2006]; [Tan et al., 2006]; [Stuart et al., 2013]; [Tortoriello et al., 2013]; [Raboune et al., 2014]; [Leishman et al., 2016a],[b], [2017], [2018]). Chromatograms (Supplementary Figure 3) were generated by determining the retention time of analytes from the analytical column with a [M-1] or [M+1] parent peak and a fragmentation peak corresponding to the programmed values. […]
# [1] = midbrain, PND 35 WT adolescent female mice, 3 mg/kg
# [2] = striatum, PND 50, 3mg/kg CP 55,940 vs Veh
# [3] = striatum, PND 50 female mice, 3mg/kg CP 55,940, mean
smiles,measurement,setting,value
"CCCCCCC(C)(C)c1ccc([C@@H]2C[C@H](O)CC[C@H]2CCCO)c(O)c1 [CP 55,940]","N-stearoyl GABA level, Mean",[1],7.82E-12
same,"N-stearoyl alanine level, Mean",[1],9.99E-12
same,"N-stearoyl ethanolamine level, Mean",[1],1.75E-11
same,"N-stearoyl glycine level, Mean",[1],2.16E-11
same,"N-stearoyl leucine level, Mean",[1],1.07E-12
same,"N-stearoyl methionine level, Mean",[1],2.71E-12
same,"N-stearoyl phenylalanine level, Mean",[1],2.34E-12
same,"N-stearoyl proline level, Mean",[1],3.86E-13
same,"N-stearoyl serine level, Mean",[1],3.54E-11
same,"N-stearoyl tryptophan level, Mean",[1],7E-13
same,"N-stearoyl tyrosine level, Mean",[1],2.3E-13
same,"Oleic acid level, Mean",[1],1.55E-09
same,"PGE2 level, Mean",[1],5.98E-10
same,"PhosphoLEA level, Mean",[1],1.57E-11
same,"2-arachidonoyl glycerol, Direction (relative to Veh)",[2],↓
same,"2-arachidonoyl glycerol, Magnitude (x Veh level)",[2],0.86 x Veh level
same,2-linoleoyl glycerol Direction (relative to Veh),[2],↓
same,2-linoleoyl glycerol Magnitude (x Veh level),[2],0.77 x Veh level
same,"Arachidonic acid, Direction (relative to Veh)",[2],↓
same,"Arachidonic acid, Magnitude (x Veh level)",[2],0.81 x Veh level
same,"Linoleic acid, Direction (relative to Veh)",[2],↓
same,"Linoleic acid, Magnitude (x Veh level)",[2],0.78 x Veh level
same,N-arachidonoyl GABA Direction (relative to Veh),[2],↓
same,N-arachidonoyl GABA Magnitude (x Veh level),[2],0.71 x Veh level
same,N-arachidonoyl glycine Direction (relative to Veh),[2],↓
same,N-arachidonoyl glycine Magnitude (x Veh level),[2],0.65 x Veh level
same,"N-arachidonoyl phenylalanine, Direction (relative to Veh)",[2],↓
same,"N-arachidonoyl phenylalanine, Magnitude (x Veh level)",[2],0.78 x Veh level
same,N-arachidonoyl taurine Direction (relative to Veh),[2],↓
same,N-arachidonoyl taurine Magnitude (x Veh level),[2],0.91 x Veh level
same,N-docosahexaenoyl GABA Direction (relative to Veh),[2],↓
same,N-docosahexaenoyl GABA Magnitude (x Veh level),[2],0.81 x Veh level
same,N-docosahexaenoyl glycine Direction (relative to Veh),[2],↓
same,N-docosahexaenoyl glycine Magnitude (x Veh level),[2],0.51 x Veh level
same,"N-palmitoyl leucine, Direction (relative to Veh)",[2],↑
same,"N-palmitoyl leucine, Magnitude (x Veh level)",[2],1.33 x Veh level
same,N-palmitoyl tyrosine Magnitude (x Veh level),[2],1.35 x Veh level
same,"N-palmitoyl tyrosine, Direction (relative to Veh)",[2],↑
same,N-palmitoyl valine Direction (relative to Veh),[2],↑
same,N-palmitoyl valine Magnitude (x Veh level),[2],1.72 x Veh level
same,"Oleic acid, Direction (relative to Veh)",[2],↓
same,"Oleic acid, Magnitude (x Veh level)",[2],0.79 x Veh level
same,PGF2α Direction (relative to Veh),[2],↑
same,PGF2α Magnitude (x Veh level),[2],1.16 x Veh level
same,2-arachidonoyl-sn-glycerol level,[3],1.35E-10
same,2-linoleoyl-sn-glycerol level,[3],8.22E-11
same,2-oleoyl-sn-glycerol level,[3],9.26E-10
same,2-palmitoyl-sn-glycerol level,[3],1.09E-09
same,11-OH-THC level,[3],BDL
same,11-nor-9-carboxyTHC level,[3],BDL
same,Arachidonic acid level,[3],2.35E-10
same,Cannabidiol level,[3],BDL
same,Linoleic acid level,[3],1.59E-10
same,N-arachidonoyl GABA level,[3],4.29E-12
same,N-arachidonoyl dopamine level,[3],BDL
same,N-arachidonoyl ethanolamine level,[3],2.93E-11
same,N-arachidonoyl glycine level,[3],5.51E-13
same,N-arachidonoyl phenylalanine level,[3],3.83E-13
same,N-arachidonoyl proline level,[3],BDL
same,N-arachidonoyl taurine level,[3],2.53E-11
same,N-arachidonoyl tryptophan level,[3],BDL
same,N-docosahexaenoyl GABA level,[3],4.96E-13
same,N-docosahexaenoyl ethanolamine level,[3],3.09E-11
same,N-docosahexaenoyl glycine level,[3],1.15E-13
same,N-docosahexaenoyl leucine level,[3],1.19E-13
same,N-docosahexaenoyl methionine level,[3],BDL
same,N-docosahexaenoyl phenylalanine level,[3],4.38E-13
same,N-docosahexaenoyl proline level,[3],BDL
same,N-docosahexaenoyl tryptophan level,[3],BDL
same,N-docosahexaenoyl valine level,[3],BDL
same,N-linoleoyl alanine level,[3],1.36E-13
same,N-linoleoyl ethanolamine level,[3],5.34E-11
same,N-linoleoyl glycine level,[3],6.89E-14
same,N-linoleoyl leucine level,[3],4.43E-14
same,N-linoleoyl proline level,[3],BDL
same,N-linoleoyl serine level,[3],1.09E-10
same,N-linoleoyl tryptophan level,[3],BDL
same,N-linoleoyl tyrosine level,[3],BDL
same,N-nervonoyl valine level,[3],BDL
same,N-oleoyl GABA level,[3],1.25E-12
same,N-oleoyl alanine level,[3],1.2E-12
same,N-oleoyl dopamine level,[3],BDL
same,N-oleoyl ethanolamine level,[3],6.94E-11
same,N-oleoyl glycine level,[3],1.27E-12
same,N-oleoyl leucine level,[3],4.16E-13
same,N-oleoyl methionine level,[3],3.74E-13
same,N-oleoyl phenylalanine level,[3],5.89E-13
same,N-oleoyl proline level,[3],BDL
same,N-oleoyl serine level,[3],2.17E-10
same,N-oleoyl tryptophan level,[3],BDL
same,N-oleoyl tyrosine level,[3],1.31E-13
same,N-palmitoyl GABA level,[3],3.11E-12
same,N-palmitoyl alanine level,[3],4.63E-12
same,N-palmitoyl ethanolamine level,[3],6.26E-11
same,N-palmitoyl glycine level,[3],5.26E-12
same,N-palmitoyl leucine level,[3],1.06E-12
same,N-palmitoyl methionine level,[3],1.12E-12
same,N-palmitoyl phenylalanine level,[3],9.78E-13
same,N-palmitoyl proline level,[3],BDL
same,N-palmitoyl serine level,[3],2.18E-11
same,N-palmitoyl tryptophan level,[3],BDL
same,N-palmitoyl tyrosine level,[3],4.79E-13
